Each compound was assayed on BaF3 V617F cells; UKE-1 (assay: Proliferation Assay (Cell Titer-Glo; Example 7)). Conditions: proliferation 72 hours, inhibit JAK2 activity, cell line (BaF3 V617F or UKE-1) not stated.
Assay type: cell-based
Method in brief: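 BaF3 V617F cells (RPMI, 10% FBS) and UKE-1 cells (Iscove's DMEM, 10% FBS, 10% equine serum, 1 uM hydrocortisone) were exposed to 3-fold serially diluted compound in duplicate for 72 hours at 37 °C. Viable cell number quantified by Cell Titer-Glo luminescence; IC50 reported.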

Row | Compound | IC50
1 | CCNS(=O)(=O)NCc1ccc(Nc2nc(Nc3ccc(C4CCN(C)CC4)cc3)ncc2C)cc1 [II-124, N4-[(4-(Ethylamino)sulfonylamino)methylphenyl]-5-methyl-N2-[4-(1-methyl-4-piperidinyl)pheny]-2,4-pyrimidinediamine] | 1.16 µM
2 | COc1c(C)cc(Nc2ncc(C)c(Nc3ccc4c(c3)C(NS(=O)(=O)C3CC3)CC4)n2)cc1C (racemic) [V-7, (+/−)-N4-[1-(Cyclopropylsulfonylamino)indan-6-yl]-N2-(3,5-dimethyl-4-methoxyphenyl)-5-methyl-2,4-pyrimidinediamine] | 1.6 µM
3 | COc1cc(Nc2ncc(C)c(Nc3ccc4c(c3)[C@H](NS(C)(=O)=O)CC4)n2)cc(OC)c1OC [V-9] | 2.2 µM
4 | Cc1cc(Nc2ncc(C(F)(F)F)c(Nc3ccc(CNS(=O)(=O)C4CC4)cc3)n2)ccc1N1CCN(C)CC1 [II-128, N4-[4-(N-Cyclopropylsulfonylamino)methylphenyl]-N2-[3-methyl-4-(4-methyl-1-piperazinyl)phenyl]-5-trifluoromethyl-2,4-pyrimidinediamine] | 0.755 µM
5 | 5-Methyl-N4-[4-(N-cyclopropylsulfonylamino)methylphenyl]-N2-[2,4-dimethyl-5-chlorophenyl]-2,4-pyrimidinediamine [II-212] | 2.2 µM
6 | Cc1cc(CNS(=O)(=O)C2CC2)cc(Nc2nc(Nc3ccc(N4CCN(C5CC6CCC5C6)CC4)cc3)ncc2C)c1 (stereo not shown) [II-77, N-(3-(2-(4-(4-(bicyclo[2.2.1]heptan-2-yl)piperazin-1-yl)phenylamino)-5-methylpyrimidin-4-ylamino)-5-methylbenzyl)cyclopropanesulfonamide] | 1.32 µM
7 | CCNS(=O)(=O)NCc1ccc(Nc2nc(Nc3cc(Cl)c(OC)c(Cl)c3)ncc2C)cc1 [II-119, N2-[3,5-Dichloro-4-methoxyphenyl]-N4-[(4-(ethylamino)sulfonylamino)methylphenyl]-5-methyl-2,4-pyrimidinediamine] | 1.36 µM
8 | Cc1cnc(Nc2ccc(N3CCN(C)CC3)cc2)nc1Nc1ccc(CCNS(=O)(=O)C2CC2)cc1 [II-67] | 0.717 µM
9 | Cc1cnc(Nc2ccc(N3CCN(C)CC3)cc2F)nc1Nc1ccc(CCNS(=O)(=O)C2CC2)cc1 [II-73] | 0.595 µM
10 | CCS(=O)(=O)N1CCc2c(cccc2Nc2nc(Nc3cc(OC)c(OC)c(OC)c3)ncc2Cl)C1 [VI-5, 5-Chloro-N4-[1,2,3,4-tetrahydro-2-(ethylsulfonyl)-5-isoquinolinyl]-N2-(3,4,5-trimethoxyphenyl)-2,4-pyrimidinediamine] | 0.798 µM
11 | 5-Chloro-N4-[4-(N-cyclopropylsulfonylamino)methylphenyl]-N2-[3-methyl-4-(N-methylpiperizin-4-yl)phenyl]-2,4-pyrimidinediamine [II-203] | 1.5 µM
12 | 5-Methyl-N4-[4-(N-cyclopropylsulfonylamino)methylphenyl]-N2-[4-(1-morpholinomethyl)phenyl]-2,4-pyrimidinediamine [II-222] | 0.946 µM
13 | CCc1cnc(Nc2cc(C)c(OC)c(C)c2)nc1Nc1ccc(CNS(=O)(=O)C2CC2)cc1 [II-81, N4-[4-(N-Cyclopropylsulfonylamino)methylphenyl]-N2-(3,5-dimethyl-4-methoxyphenyl)-5-ethyl-2,4-pyrimidinediamine] | 1.1 µM
14 | Cc1cnc(Nc2ccc(N3CCN(C)CC3)cc2)nc1Nc1ccc2c(c1)C(NS(=O)(=O)C1CC1)CC2 (racemic) [V-4, (+/−)-N4-[1-(Cyclopropylsulfonylamino)indan-6-yl]-5-methyl-N2-[4-(4-methyl-1-piperazinyl)phenyl]-2,4-pyrimidinediamine] | 0.686 µM
15 | Cc1cnc(Nc2cc(C)c(C)c(C)c2)nc1Nc1ccc2c(c1)S(=O)(=O)NCC2 [VII-8, 5-Methyl-N4-[3,4-dihydro-1,1-dioxide-2H-1,2-benzothiazin-7-yl]-N2-[3,4,5-trimethylphenyl]-2,4-pyrimidinediamine] | 1.61 µM
16 | CCNS(=O)(=O)NCc1ccc(Nc2nc(Nc3cc(OC)c(OC)c(OC)c3)ncc2C)cc1 [II-120, N4-[(4-(Ethylamino)sulfonylamino)methylphenyl]-5-methyl-N2-(3,4,5-trimethoxyphenyl)-2,4-pyrimidinediamine] | 0.871 µM
17 | CN1CCN(c2ccc(Nc3ncc(Cl)c(Nc4ccc(CNS(N)(=O)=O)cc4)n3)cc2)CC1 [II-148, N4-[4-(Aminosulfonylamino)methylphenyl]-5-chloro-N2-[4-(4-methyl-1-piperazinyl)phenyl]-2,4-pyrimidinediamine] | 1.32 µM
18 | 5-Chloro-N4-[4-(N-cyclopropyl-N-propionylsulfonylamino)methylphenyl]-N2-[3,5-dimethyl-4-methoxyphenyl]-2,4-pyrimidinediamine [II-218] | 0.248 µM
19 | Cc1cnc(Nc2cnccc2N2CCN(C)CC2)nc1Nc1ccc(CNS(=O)(=O)C2CC2)cc1 [II-215, 5-Methyl-N4-[4-(N-cyclopropylsulfonylamino)methylphenyl]-N2-[4-(N-methylpiperizin-4-yl)pyridine-3-yl]-2,4-pyrimidinediamine] | 1.52 µM

Further compounds by falling IC50, results first:

Row | IC50 | Compound
20 | 0.546 µM | COc1cc(Nc2ncc(Cl)c(Nc3cccc(CNS(=O)(=O)C4CC4)c3)n2)cc(OC)c1OC [II-189, 5-Chloro-N4-[3-(N-cyclopropylsulfonylamino)methylphenyl]-N2-[3,4,5-trimethoxyphenyl]-2,4-pyrimidinediamine]
21 | 0.53 µM | CCOc1cc(C)c(Nc2ncc(C)c(Nc3ccc(CCNS(=O)(=O)C4CC4)cc3)n2)c(C)c1 [II-63]
22 | 0.509 µM | COc1cc(Nc2ncc(C)c(Nc3ccc(CNS(=O)(=O)N(C)C)cc3)n2)cc(OC)c1OC [II-103, N4-[(4-(Dimethylamino)sulfonylamino)methylphenyl]-5-methyl-N2-(3,4,5-trimethoxyphenyl)-2,4-pyrimidinediamine]
23 | 0.485 µM | CCNS(=O)(=O)NCc1ccc(Nc2nc(Nc3cc(C)c(OC)c(C)c3)ncc2Cl)c(C)c1 [II-142, 5-Chloro-N2-(3,5-dimethyl-4-methoxyphenyl)-N4-[2-methyl-4-(ethylaminosulfonylamino)methylphenyl]-2,4-pyrimidinediamine]
24 | 0.438 µM | COc1cc(C)c(Nc2ncc(C)c(Nc3ccc(CCNS(=O)(=O)C4CC4)cc3)n2)c(C)c1 [II-62]
25 | 0.428 µM | CCCOc1c(C)cc(Nc2ncc(Cl)c(Nc3ccc(CNS(=O)(=O)NC4CC4)cc3C)n2)cc1C [II-178, 5-Chloro-N2-(3,5-dimethyl-4-propoxyphenyl)-N4-[2-methyl-4-((N-cyclopropylamino)sulfonylamino)methylphenyl]-2,4-pyrimidinediamine]
26 | 0.388 µM | Cc1cnc(Nc2cc(C3CC3)n[nH]2)nc1Nc1ccc(CNS(=O)(=O)C2CC2)cc1 [VIII-11, 5-Methyl-N4-[4-(N-cyclopropylsulfonylamino)methylphenyl]-N2-[5-cyclopropylpyrazol-3-yl)-2,4-pyrimidinediamine]
27 | 0.384 µM | 5-Chloro-N4-[4-(N-cyclopropylsulfonylamino)methylphenyl]-N2-[4-[N-(methansulfonyl)piperizin-4-ylphenyl]-2,4-pyrimidinediamine [II-207]
28 | 0.383 µM | Cc1cnc(Nc2ccc(C3CCN(C)CC3)cc2)nc1Nc1ccc(CNS(=O)(=O)N(C)C)cc1 [II-106, N4-[(4-(Dimethylamino)sulfonylamino)methylphenyl]-5-methyl-N2-[4-(1-methyl-4-piperidinyl)pheny]-2,4-pyrimidinediamine]
29 | 0.252 µM | CCNS(=O)(=O)NCc1ccc(Nc2nc(Nc3cc(C)c(OCC)c(C)c3)ncc2Cl)c(C)c1 [II-143, 5-Chloro-N2-(3,5-dimethyl-4-ethoxyphenyl)-N4-[2-methyl-4-(ethylaminosulfonylamino)methylphenyl]-2,4-pyrimidinediamine]
30 | 0.231 µM | CCNS(=O)(=O)NCc1cccc(Nc2nc(Nc3cc(C)c(OCC)c(C)c3)ncc2C)c1 [II-134, N2-(3,5-Dimethyl-4-ethoxyphenyl)-N4-[(3-(ethylamino)sulfonylamino)methylphenyl]-5-methyl-2,4-pyrimidinediamine]
31 | 0.215 µM | COc1cc(Nc2ncc(Cl)c(Nc3ccc(CNS(=O)(=O)NC4CC4)cc3C)n2)cc(C)c1OC [II-179, 5-Chloro-N2-(3,4-dimethoxy-5-methylphenyl)-N4-[2-methyl-4-((N-cyclopropylamino)sulfonylamino)methylphenyl]-2,4-pyrimidinediamine]
32 | 0.158 µM | COc1cc(Nc2ncc(Cl)c(Nc3ccc(CNS(=O)(=O)NC4CC4)cc3)n2)cc(C)c1OC [II-158, 5-Chloro-N4-[4-((N-cyclopropylamino)sulfonylamino)methylphenyl]-N2-(3,4-dimethoxy-5-methylphenyl)-2,4-pyrimidinediamine]
33 | 0.151 µM | CCNS(=O)(=O)NCc1ccc(Nc2nc(Nc3cc(C)c(OC)c(OC)c3)ncc2Cl)cc1 [II-109, 5-Chloro-4-[(4-(ethylamino)sulfonylamino)methylphenyl]-N2-(3,4-dimethoxy-5-methylphenyl)-2,4-pyrimidinediamine]
34 | 0.0831 µM | CCOc1c(C)cc(Nc2ncc(Cl)c(Nc3ccc(CNS(=O)(=O)NC4CC4)cc3)n2)cc1C [II-155, 5-Chloro-N4-[4-((N-cyclopropylamino)sulfonylamino)methylphenyl]-N2-(3,5-dimethyl-4-ethoxyphenyl)-2,4-pyrimidinediamine]
35 | 0.0581 µM | Cc1cc(Nc2ncc(Cl)c(Nc3ccc(CNS(=O)(=O)NC4CC4)cc3)n2)cc(C)c1OC(C)C [II-156, 5-Chloro-N4-[4-((N-cyclopropylamino)sulfonylamino)methylphenyl]-N2-(3,5-dimethyl-4-(1-methyl)ethoxyphenyl)-2,4-pyrimidinediamine]
36 | 0.0573 µM | COc1cc(Nc2ncc(Cl)c(Nc3ccc(CNS(=O)(=O)C4CC4)cc3)n2)cc(C)c1OC [II-199, 5-Chloro-N4-[4-(N-cyclopropylsulfonylamino)methylphenyl]-N2-[3,4-dimethoxy-5-methylphenyl]-2,4-pyrimidinediamine]
37 | 0.0429 µM | COc1c(C)cc(Nc2ncc(Cl)c(Nc3ccc(CNS(=O)(=O)NC4CC4)cc3)n2)cc1C [II-154, 5-Chloro-N4-[4-((N-cyclopropylamino)sulfonylamino)methylphenyl]-N2-(3,5-dimethyl-4-methoxyphenyl)-2,4-pyrimidinediamine]

Source: patent publication US8304422B2, “Compositions and methods for inhibition of the JAK pathway” (Rigel Pharmaceuticals, Inc., priority 2007, dated 2012)
